This is an account of results in patent US20050267126A1, “Compounds derived from aryl carbamates, preparation thereof and uses of same” (priority 2002, published 2005).

T1 sequence (Q13639 1-378 isoform Q13639-5): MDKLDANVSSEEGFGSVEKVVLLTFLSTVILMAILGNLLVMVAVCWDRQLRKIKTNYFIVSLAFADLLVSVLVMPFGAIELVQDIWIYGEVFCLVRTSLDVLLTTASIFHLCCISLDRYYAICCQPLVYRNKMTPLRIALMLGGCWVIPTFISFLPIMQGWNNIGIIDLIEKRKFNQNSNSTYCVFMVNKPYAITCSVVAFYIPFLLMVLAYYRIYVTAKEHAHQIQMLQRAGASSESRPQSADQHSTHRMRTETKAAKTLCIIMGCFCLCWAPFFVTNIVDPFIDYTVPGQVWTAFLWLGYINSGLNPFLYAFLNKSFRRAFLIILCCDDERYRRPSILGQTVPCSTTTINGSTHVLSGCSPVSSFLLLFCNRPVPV

This experiment has as its target T1, human isoform h5-HT4e (Homo sapiens, UniProt Q13639).
T1 construct: expressed in transfected cells; host or cells: rat glial cells, stably expressing; membranes prepared from homogenized cells
Put plainly: displacement of radiolabelled ligand [3H]-GR113808, affinity constant Ki. The class given is binding. Particulars: [3H]-GR113808 0.2 nM; membranes of rat glial cells stably expressing h5-HT4e; 25° C., 30 min. How it is done: The compounds of the invention were evaluated by measuring their affinity constant Ki determined by displacement of a radiolabelled ligand [^3H]—GR113808 in rat glial cells stably expressing the human isoform h5-HT4e.
Confluent glial cells were washed twice with PBS and centrifuged at 300 g for 5 min. The pellet was used immediately and the cells were suspended in 10 volumes of HEPES (50 mM, pH 7.4, 4° C.) then homogenized in a teflon homogenizer and centrifuged at 40,000 g for 20 min. The pellet was again suspended in 15 volumes of HEPES. Binding displacement experiments were carried out in […] of 50 mM HEPES buffer containing 20 μl of the radiolabelled ligand [^3H]—GR113808 at a concentration of 0.2 nM for the isoform h5-HT4e or at a concentration equal to one-half the Kd of the radioligand for the other isoforms expressed in COS cells, 20 μl of competitor ligand at 7 different concentrations and 50 μl of membrane preparation (100-200 μg of protein determined by the Bradford method). Binding was carried out at 25° C. for 30 min and the reaction was stopped by rapid vacuum filtration (Brandel Harvester) on Whatman GF/B filters preincubated in 0.1% PEI to reduce nonspecific binding.
Membrane-bound radioactivity was retained on the filter, which was cut and washed with cold buffer (50 mM Tris-HCl, pH 7.4) and incubated overnight in 4 ml of scintillation fluid. Radioactivity was measured in a liquid scintillation counter (Beckmann LS 6500C). Binding data were obtained by computer-assisted linear regression. (Graph Prism Program, Graph Pad Software. Inc., San Diego, Calif.)
By Ki is commonly meant a measure of affinity in units of concentration, obtained from inhibition or displacement. Low values mean a stronger hold on the target, high ones a looser hold on the target. `CCOc1ccccc1NC(=O)OCCN1CCN(c2cccc(NC(=O)C3=CCCN(C)C3)c2)CC1` [Example 21, 2-(4-{3-[(1-methyl-1,2,5,6-tetrahydro-pyridine-3-carbonyl)-amino]-phenyl}-piperazin-1-yl)-ethyl-N-(2-ethoxy-phenyl)carbamate] had a Ki of 0.13 nM.

`CCOc1ccccc1NC(=O)OCCN1CCN(c2cccc(NC(=O)CCN)c2)CC1` [Example 42, 2-{4-[3-(3-amino-propionylamino)-phenyl]-piperazin-1-yl}-ethyl-N-(2-ethoxy-phenyl)carbamate]: the Ki was found to be 0.17 nM.

`CCOc1ccccc1NC(=O)OCCN1CCN(c2cccc(NC(=O)C(N)Cc3ccc(O)cc3)c2)CC1` (centres unmarked) [Example 44, 2-(4-{3-[2-amino-3-(4-hydroxy-phenyl)-propionylamino]-phenyl}-piperazin-1-yl)-ethyl-N-(2-ethoxy-phenyl)carbamate] had a Ki of 0.18 nM. Next, `CCOc1ccccc1NC(=O)OCCN1CCN(c2cccc(NC(=O)NCC3CCCN3CC)c2)CC1` (centres unmarked) [Example 57, 2-(4-{3-[3-(1-ethyl-pyrrolidin-2-ylmethyl)-ureido]-phenyl}-piperazin-1-yl)-ethyl-N-(2-ethoxy-phenyl)carbamate]: 0.09 nM; `CCOc1ccccc1NC(=O)OCCN1CCN(c2cccc(NC(=O)N3CCC(N4CCCC4)CC3)c2)CC1` [Example 59, 2-(4-{3-[(4-pyrrolidin-1-yl-piperidine-1-carbonyl)-amino]-phenyl}-piperazin-1-yl)-ethyl-N-(2-ethoxy-phenyl)carbamate]: 0.24 nM. Next, `CCOc1ccccc1NC(=O)OCCN1CCN(c2cccc(NC(=O)NCCCN3CCN(C)CC3)c2)CC1` [Example 60, 2-[4-(3-{3-[3-(4-methyl-piperazin-1-yl)-propyl]-ureido}-phenyl)-piperazin-1-yl]-ethyl-N-(2-ethoxy-phenyl)carbamate]: 0.2 nM. For `CCOc1ccccc1NC(=O)OCCN1CCN(c2cccc(C(=O)NCCN3CCCCC3)c2)CC1` [Example 78, 2-(4-{3-[2-piperidin-1-yl-ethylcarbamoyl]-phenyl}-piperazin-1-yl)-ethyl-N-(2-ethoxy-phenyl)carbamate], affinity was put at a Ki of 0.16 nM.

For the molecule `CCOc1ccccc1NC(=O)OCCN1CCN(c2cccc(C(=O)N(C)CCN(C)C)c2)CC1` [Example 105, 2-(4-{3-[(2-dimethylamino-ethyl)-methyl-carbamoyl]-phenyl}-piperazin-1-yl)-ethyl N-(2-ethoxy-phenyl)-carbamate], the Ki was determined as 0.75 nM.
